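Following 48 hours of exposure in 96-well plates, responses at five concentrations were used to interpolate endpoints linearly. GI50 is the concentration that inhibits growth by half. The concentration for full growth arrest is given as TGI.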
Key:
Test in all cases: NCI-60 cell line screen, 48 h
CAKI-1 renal = tested on: CAKI-1 renal
EKVX NSCLC = tested on: EKVX NSCLC
HOP-92 NSCLC = tested on: HOP-92 NSCLC
HT29 colon = tested on: HT29 colon
IGROV1 ovarian = tested on: IGROV1 ovarian
MALME-3M melanoma = tested on: MALME-3M melanoma
MOLT-4 leukemia = tested on: MOLT-4 leukemia
NCI-H226 lung = tested on: NCI-H226 lung
SK-MEL-28 melanoma = tested on: SK-MEL-28 melanoma
LOX IMVI melanoma = tested on: LOX IMVI melanoma
DU-145 prostate = tested on: DU-145 prostate
MDA-MB-435 = tested on: MDA-MB-435
NCI/ADR-RES ovarian = tested on: NCI/ADR-RES ovarian
BT-549 breast = tested on: BT-549 breast

Structure (SMILES) | TGI (CAKI-1 renal) [µM] | TGI (EKVX NSCLC) [µM] | TGI (HOP-92 NSCLC) [µM] | TGI (HT29 colon) [µM] | TGI (IGROV1 ovarian) [µM] | TGI (MALME-3M melanoma) [µM] | TGI (MOLT-4 leukemia) [µM] | TGI (NCI-H226 lung) [µM] | TGI (SK-MEL-28 melanoma) [µM] | GI50 (HOP-92 NSCLC) [µM] | GI50 (HT29 colon) [µM] | GI50 (LOX IMVI melanoma) [µM] | TGI (LOX IMVI melanoma) [µM] | GI50 (MOLT-4 leukemia) [µM] | GI50 (NCI-H226 lung) [µM] | TGI (DU-145 prostate) [µM] | TGI (MDA-MB-435) [µM] | TGI (NCI/ADR-RES ovarian) [µM] | TGI (BT-549 breast) [µM] | GI50 (IGROV1 ovarian) [µM]
CC(/C=C1\CCC(CN(C)C)C1=O)c1cccc(Br)c1 (configuration not stated) | 21.1 | 42 | 33.5 | 20.7 | 19.4 | 32.4 | 13.3 | 48.8 | 31.5 | – | – | – | – | – | – | – | – | – | – | –
COc1cc(Cn2c3ccccc3c3cc(C)cc(OC)c32)cc2c1[nH]c1ccccc12 | – | – | > 25 | > 25 | > 25 | > 25 | > 25 | > 25 | > 25 | 5.39 | 16.9 | 8.19 | > 25 | 8.51 | 17 | – | – | – | – | –
O=C(O)c1ccc(Nc2nc3ccc(C(F)(F)F)cc3nc2C(=O)O)cc1 | > 100 | > 100 | > 100 | > 100 | > 100 | > 100 | > 100 | > 100 | > 100 | – | – | – | > 100 | – | – | > 100 | > 100 | > 100 | – | –
O=C(O)c1ccccc1/C=N\N(CCO)C1=NCCN1 | – | > 100 | > 100 | > 100 | > 100 | > 100 | > 100 | > 100 | > 100 | – | – | – | > 100 | – | – | > 100 | > 100 | – | > 100 | –
Nc1nc(N)c2c(-c3ccccc3)ccnc2n1 | > 100 | > 100 | > 100 | > 100 | > 100 | > 100 | – | > 100 | > 100 | – | – | – | > 100 | – | – | > 100 | > 100 | – | > 100 | –
CC(=O)OC1CC2C(=O)CC1(C)C2(C)C (configuration not stated) | > 100 | > 100 | > 100 | > 100 | > 100 | > 100 | > 100 | > 100 | > 100 | – | – | – | > 100 | – | – | > 100 | > 100 | > 100 | – | > 100
C[C@H]1[C@H](C)CC[C@]2(C(=O)O)CCC3(COC(=O)/C=C/c4ccc(O)cc4)C(=CCC4[C@@]5(C)CC[C@H](O)C(C)(C)C5CC[C@]43C)[C@H]12 (some centres not stated) | 22.1 | 24.6 | – | 18.6 | 15.4 | 37.2 | 32.4 | 23.4 | 22.9 | – | – | – | 18.3 | – | – | – | – | – | – | –
